# Measurements from patent US20130123460A1, “PEPTIDE FOR IMPROVING BIOSTABILITY OF BIOACTIVE SUBSTANCE, AND BIOACTIVE SUBSTANCE HAVING IMPROVED BIOSTABILITY” (priority 2010, published 2013).
# Where no end group is shown, it is not given here.
# Legend:
# [1] = Plasma stability of VIP peptide complex (remaining rate in rat plasma); format: in vitro ADME, SD rats; settings: VIP complexes, 37° C.; for remaining at 8 h, 0.5 μmol/L / remaining at 48 h, 0.5 μmol/L: SD; for remaining at 8 h, 0.5 μmol/L: read-out: Remaining rate in plasma after 8 hours (%); for remaining at 48 h, 0.5 μmol/L: read-out: Remaining rate in plasma after 48 hours; for Remaining rate in plasma after 8 hours (%) / Remaining rate in plasma after 48 hours: 0.5 μmol/L
# Protocol: The plasma stability was evaluated in vitro, in order to inspect the biostability of the VIP peptide complex.
# SD rats were anesthetized with diethyl ether, whole blood was collected, and a plasma fraction was separated therefrom. The VIP or VIP-peptide complex was added to the plasma so that the final concentration thereof was 0.5 μmol/L, and the mixture was incubated at 37° C. A sample was recovered after 0, 8 or 48 hours, and a remaining rate was evaluated by an HPLC/MS measurement of an amount of the VIP or VIP peptide complex.
# endogenous VIP receptor = target: T1, endogenous VIP receptor (Homo sapiens, UniProt P41587); assay: cAMP productivity in SUP-T1 cells; format: cell-based; settings: 3-3000 nM, IBMX, 30 minutes
# T1 construct: expressing an endogenous VIP receptor; host or cells: SUP-T1 human T-cell line
# T1 sequence (P41587 24-438): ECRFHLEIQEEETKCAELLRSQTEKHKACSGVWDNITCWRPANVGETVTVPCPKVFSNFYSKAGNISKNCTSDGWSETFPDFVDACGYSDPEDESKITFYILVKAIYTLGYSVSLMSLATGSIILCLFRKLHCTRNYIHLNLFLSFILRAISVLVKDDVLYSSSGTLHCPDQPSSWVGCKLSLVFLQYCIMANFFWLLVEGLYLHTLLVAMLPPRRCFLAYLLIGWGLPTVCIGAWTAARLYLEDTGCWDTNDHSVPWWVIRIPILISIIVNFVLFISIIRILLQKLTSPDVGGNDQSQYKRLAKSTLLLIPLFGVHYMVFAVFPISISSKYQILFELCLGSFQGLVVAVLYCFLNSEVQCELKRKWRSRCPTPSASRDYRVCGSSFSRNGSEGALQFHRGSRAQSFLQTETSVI
# Protocol: A productivity of cAMP was analyzed in vitro, in order to evaluate the activity intensity of the VIP peptide complexes showing the plasma stability in Experimental Example 4.
# An intracellular cAMP productivity was evaluated using SUP-T1 cells which were derived from human T-cell, expressing an endogenous VIP receptor (purchased from ATCC). The SUP-T1 cells which were subjected to suspension culture for 48 or more hours were moved to a tube, and the cells were washed twice with a medium (RPMI-1640). After that, a medium including IBMX (3-isobutyl-1-methylxanthine), which was an inhibitor of a catabolic enzyme of the cAMP, was added thereto, and the mixture was incubated at 37° C. for 15 minutes. After centrifugation, the supernatant was removed, and an IBMX-containing medium including the VIP peptide complex was added thereto. The reaction was performed at 37° C. for 30 minutes. After the reaction, the tube was centrifuged, the supernatant was removed, and the cell lysate was added thereto. The mixture was incubated at 37° C. for 30 minutes to dissolve the cells, and the productivity was evaluated by the measurement of the cAMP. The cAMP measurement was performed using an enzyme-linked immunosorbent assay (ELISA) by chemiluminescence detection.
# The activity intensity (%) of the VIP peptide complex was calculated according to the following formula.
# Activity Intensity (%)=[{(the maximum amount of the cAMP produced in each VIP peptide complex)/(the maximum amount of the cAMP produced in native VIP)]×100
# [2] = Plasma stability of amylin complex (remaining rate in rat plasma); format: in vitro ADME, SD rats; settings: amylin, rat plasma, 0.5 μmol/L, 37° C.
# Protocol: Evaluation was performed in a manner in which after the treatment of the amylin or amylin peptide complex with plasma for a pre-determined time, an amount of change of the amylin peptide (complex) undecomposed was measured by an HPLC/MS.
# [3] = Plasma stability of ghrelin peptide complex (remaining rate in rat plasma); format: in vitro ADME, SD rats; settings: 37° C.
# Protocol: Evaluation was performed in a manner in which after the treatment of the ghrelin or ghrelin peptide complex in plasma for a pre-determined time, an amount of change of the ghrelin or ghrelin peptide complex undecomposed was measured by an HPLC/MS.
# [4] = SD, 0.5 hour, read-out: Remaining rate in plasma after 0.5 hour (%)
# [5] = SD, 2 hours, read-out: Remaining rate in plasma after 2 hours (%)
# [6] = SD, 8 hours, read-out: Remaining rate in plasma after 8 hours (%)
Molecule,Remaining rate in plasma after 48 hours [1] [%],"remaining at 8 h, 0.5 μmol/L [1] [%]","remaining at 48 h, 0.5 μmol/L [1] [%]",Remaining rate in plasma after 8 hours (%) [1],"Activity Intensity (%), maximum amount of cAMP produced relative to native VIP (endogenous VIP receptor) [%]",further results
"CC[C@H](C)[C@H](NC(=O)[C@H](CCC(=O)O)NC(=O)[C@H](CC(=O)O)NC(=O)[C@@H](NC(=O)[C@H](CC(C)C)NC(=O)[C@H](CC(N)=O)NC(=O)[C@H](CC(C)C)NC(=O)[C@@H](NC(=O)[C@H](CO)NC(=O)[C@H](CC(N)=O)NC(=O)[C@H](CC(C)C)NC(=O)[C@H](Cc1ccc(O)cc1)NC(=O)[C@H](CCCCN)NC(=O)[C@H](CCCCN)NC(=O)[C@@H](NC(=O)[C@H](C)NC(=O)[C@H](CCSC)NC(=O)[C@H](CCC(N)=O)NC(=O)[C@H](CCCCN)NC(=O)[C@H](CCCNC(=N)N)NC(=O)[C@H](CC(C)C)NC(=O)[C@H](CCCNC(=N)N)NC(=O)[C@@H](NC(=O)[C@H](Cc1ccc(O)cc1)NC(=O)[C@H](CC(N)=O)NC(=O)[C@H](CC(=O)O)NC(=O)[C@@H](NC(=O)[C@H](Cc1ccccc1)NC(=O)[C@@H](NC(=O)[C@H](C)NC(=O)[C@H](CC(=O)O)NC(=O)[C@H](CO)NC(=O)[C@@H](N)Cc1c[nH]cn1)C(C)C)[C@@H](C)O)[C@@H](C)O)C(C)C)[C@@H](C)CC)[C@@H](C)CC)C(=O)N[C@@H](CC(C)C)C(=O)N[C@@H](C)C(=O)N[C@@H](C)C(N)=O [Example 25, VIP(1-28)-GAm(37-44)-NH2]",118,118,118,not totally decomposed,81,
"CC[C@H](C)[C@H](NC(=O)[C@H](C)NC(=O)CNC(=O)[C@H](Cc1ccccc1)NC(=O)[C@H](CC(N)=O)NC(=O)[C@H](CC(N)=O)NC(=O)[C@H](CO)NC(=O)[C@H](CO)NC(=O)[C@H](Cc1c[nH]cn1)NC(=O)[C@@H](NC(=O)[C@H](CC(C)C)NC(=O)[C@H](Cc1ccccc1)NC(=O)[C@H](CC(N)=O)NC(=O)[C@H](C)NC(=O)[C@H](CC(C)C)NC(=O)[C@H](CCCNC(=N)N)NC(=O)[C@H](CCC(N)=O)NC(=O)[C@@H](NC(=O)[C@H](C)NC(=O)[C@@H]1CSSC[C@H](NC(=O)[C@@H](N)CCCCN)C(=O)N[C@@H](CC(N)=O)C(=O)N[C@@H]([C@@H](C)O)C(=O)N[C@@H](C)C(=O)N[C@@H]([C@@H](C)O)C(=O)N1)[C@@H](C)O)C(C)C)C(=O)N[C@@H](CC(C)C)C(=O)N[C@@H](CO)C(=O)N[C@@H](CO)C(=O)N[C@H](C(=O)N[C@@H](CC(N)=O)C(=O)N[C@H](C(=O)NCC(=O)N[C@@H](CO)C(=O)N[C@@H](CC(N)=O)C(=O)N[C@H](C(=O)N[C@@H](Cc1ccc(O)cc1)C(N)=O)[C@@H](C)O)C(C)C)[C@@H](C)O [Comparative Example 16, Amylin(1-37)-NH2]",,,,,,"remaining at 0.5 h, 0.5 μmol/L [2, 4]: 43%; remaining at 2 h, 0.5 μmol/L [2, 5]: 15%; remaining at 8 h, 0.5 μmol/L [2, 6]: 0%; Remaining rate in plasma after 2 hours (%) ([2]; 2 hours): 15%"
"CC[C@H](C)[C@H](NC(=O)[C@H](CO)NC(=O)[C@H](CC(N)=O)NC(=O)[C@H](CC(C)C)NC(=O)[C@H](Cc1ccc(O)cc1)NC(=O)[C@H](CCCCN)NC(=O)[C@H](CCCCN)NC(=O)[C@@H](NC(=O)[C@H](C)NC(=O)[C@H](CCSC)NC(=O)[C@H](CCC(N)=O)NC(=O)[C@H](CCCCN)NC(=O)[C@H](CCCNC(=N)N)NC(=O)[C@H](CC(C)C)NC(=O)[C@H](CCCNC(=N)N)NC(=O)[C@@H](NC(=O)[C@H](Cc1ccc(O)cc1)NC(=O)[C@H](CC(N)=O)NC(=O)[C@H](CC(=O)O)NC(=O)[C@@H](NC(=O)[C@H](Cc1ccccc1)NC(=O)[C@@H](NC(=O)[C@H](C)NC(=O)[C@H](CC(=O)O)NC(=O)[C@H](CO)NC(=O)[C@@H](N)Cc1c[nH]cn1)C(C)C)[C@@H](C)O)[C@@H](C)O)C(C)C)C(=O)N[C@@H](CC(C)C)C(=O)N[C@@H](CC(N)=O)C(N)=O [Comparative Example 14, VIP(1-28)-NH2, reference compound]",,0,0,completely decomposed,100,
"CCCCCCCC(=O)OC[C@H](NC(=O)[C@H](CO)NC(=O)CN)C(=O)N[C@@H](Cc1ccccc1)C(=O)N[C@@H](CC(C)C)C(=O)N[C@@H](CO)C(=O)N1CCC[C@H]1C(=O)N[C@@H](CCC(=O)O)C(=O)N[C@@H](Cc1c[nH]cn1)C(=O)N[C@@H](CCC(N)=O)C(=O)N[C@@H](CCCNC(=N)N)C(=O)N[C@H](C(=O)N[C@@H](CCC(N)=O)C(=O)N[C@@H](CCC(N)=O)C(=O)N[C@@H](CCCNC(=N)N)C(=O)N[C@@H](CCCCN)C(=O)N[C@@H](CCC(=O)O)C(=O)N[C@@H](CO)C(=O)N[C@@H](CCCCN)C(=O)N[C@@H](CCCCN)C(=O)N1CCC[C@H]1C(=O)N1CCC[C@H]1C(=O)N[C@@H](C)C(=O)N[C@@H](CCCCN)C(=O)N[C@@H](CC(C)C)C(=O)N[C@@H](CCC(N)=O)C(=O)N1CCC[C@H]1C(=O)N[C@@H](CCCNC(=N)N)C(N)=O)C(C)C [Comparative Example 17, Ghrelin(1-28)-NH2]",,,,,,"Remaining rate in plasma after 2 hours (%) ([3]; 0.5 μmol/L, 2 hours): 14%; remaining at 0.5 h, 0.5 μmol/L [3, 4]: 50%; remaining at 2 h, 0.5 μmol/L [3, 5]: 14%; remaining at 8 h, 0.5 μmol/L [3, 6]: 0%"

# Now from value to molecule, other results behind:
Remaining rate in plasma after 48 hours [1] [%],Molecule,"remaining at 8 h, 0.5 μmol/L [1] [%]","remaining at 48 h, 0.5 μmol/L [1] [%]",Remaining rate in plasma after 8 hours (%) [1],"Activity Intensity (%), maximum amount of cAMP produced relative to native VIP (endogenous VIP receptor) [%]",further results
35,"HSDAVFTDNYTRLRKQMAVKKYLNSILNAKTVEGVKALIDEILAA-NH2 [Example 27, VIP(1-28)-GAm(28-44)-NH2]",109,35,not totally decomposed,67,
47,"HSDAVFTDNYTRLRKQMAVKKYLNSILNEGVKALIDEILAA-NH2 [Example 26, VIP(1-28)-GAm(32-44)-NH2]",99,47,not totally decomposed,85,
